Results from the supplement of paper PMC10307832.

Columns and labels:
Experiment in all cases: relative viability (nuclei count vs DMSO), 5 days (fraction); higher = more cells survive
[1] = compound: CCn1c(-c2nonc2N)nc2cnc(Oc3cccc(NC(=O)c4ccc(OCCN5CCOCC5)cc4)c3)cc21 + Nc1ncn([C@H]2C[C@H](O)[C@@H](CO)O2)c(=O)n1 [Decitabine] (partner 2 µM)
Method in brief: (§1)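 Each reported value is a median over duplicate plates. It expresses relative viability: treated-well nuclei count divided by vehicle-well nuclei count. Lung cancer cell lines in 1536-well plates were dosed by pin tool a day after seeding, alone with one drug or with a fixed anchor-drug dose plus five library-drug doses (not always all listed) in √10 steps, and nuclei were counted after 5 days.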

Mirin + Palbociclib = compound: N=C1NC(=O)/C(=C/c2ccc(O)cc2)S1 [Mirin] + CC(=O)c1c(C)c2cnc(Nc3ccc(N4CCNCC4)cn3)nc2n(C2CCCC2)c1=O [Palbociclib] (partner 0.5 µM)
Method in brief: as §1

[2] = compound: CCn1c(-c2nonc2N)nc2cnc(Oc3cccc(NC(=O)c4ccc(OCCN5CCOCC5)cc4)c3)cc21 + Cc1nc(NC(=O)N2CCC[C@H]2C(N)=O)sc1-c1ccnc(C(C)(C)C(F)(F)F)c1 [Alpelisib] (partner 2 µM)
Method in brief: as §1

Mirin + Vorinostat = compound: N=C1NC(=O)/C(=C/c2ccc(O)cc2)S1 [Mirin] + O=C(CCCCCCC(=O)Nc1ccccc1)NO [Vorinostat] (partner 1 µM)
Method in brief: as §1

Cell Line | relative viability ([1]; first compound 0.04 µM) | relative viability ([1]; first compound 0.1265 µM) | relative viability ([1]; first compound 0.4 µM) | relative viability ([1]; first compound 1.265 µM) | relative viability ([1]; first compound 4 µM) | relative viability (Mirin + Palbociclib; first compound 0.25 µM) | relative viability (Mirin + Palbociclib; first compound 0.7906 µM) | relative viability (Mirin + Palbociclib; first compound 2.5 µM) | relative viability (Mirin + Palbociclib; first compound 7.906 µM) | relative viability (Mirin + Palbociclib; first compound 25 µM) | relative viability ([2]; first compound 0.04 µM) | relative viability ([2]; first compound 0.1265 µM) | relative viability ([2]; first compound 0.4 µM) | relative viability ([2]; first compound 1.265 µM) | relative viability ([2]; first compound 4 µM) | relative viability (Mirin + Vorinostat; first compound 0.25 µM) | relative viability (Mirin + Vorinostat; first compound 0.7906 µM) | relative viability (Mirin + Vorinostat; first compound 2.5 µM) | relative viability (Mirin + Vorinostat; first compound 7.906 µM) | relative viability (Mirin + Vorinostat; first compound 25 µM)
NCI-H661 | 0.498 | 0.559 | 0.406 | 0.448 | 0.33 | 0.416 | 0.426 | 0.406 | 0.369 | 0.401 | 0.823 | 0.724 | 0.435 | 0.287 | 0.451 | 0.789 | 0.839 | 0.74 | 0.776 | 0.77
PC-14 | 0.238 | 0.252 | 0.217 | 0.213 | 0.286 | 0.528 | 0.558 | 0.508 | 0.512 | 0.522 | 1.06 | 0.935 | 0.871 | 0.77 | 0.805 | 0.798 | 0.638 | 0.729 | 0.719 | 0.746
NCI-H23 | 0.362 | 0.342 | 0.334 | 0.234 | 0.263 | 0.548 | – | 0.519 | 0.49 | 0.524 | 0.874 | 0.831 | – | 0.604 | 0.495 | 0.624 | – | 0.565 | 0.54 | 0.601
SK-LU-1 | 0.628 | 0.571 | 0.423 | 0.459 | 0.424 | 0.433 | 0.393 | 0.417 | 0.348 | 0.405 | 1.17 | 0.821 | 0.599 | 0.42 | 0.349 | 0.771 | 0.823 | 0.815 | 0.599 | 0.6
NCI-H727 | – | 1.07 | 0.676 | 0.662 | 0.973 | 0.707 | 0.782 | 0.594 | 0.615 | 0.636 | 0.745 | 0.833 | 0.751 | 0.84 | 0.713 | 0.912 | 1.27 | 1.24 | 1.23 | 1.19
HCC-366 | 0.342 | 0.338 | 0.482 | 0.108 | 0.0747 | 0.35 | 0.39 | 0.405 | 0.404 | 0.366 | 0.462 | 0.429 | 0.21 | 0.0494 | 0.031 | 0.391 | 0.203 | 0.404 | 0.244 | 0.413
SW 1573 | 0.476 | 0.466 | 0.365 | 0.23 | 0.173 | 0.366 | 0.42 | 0.375 | 0.42 | 0.292 | 0.968 | 0.823 | 0.48 | 0.397 | 0.276 | 0.867 | 0.772 | 0.765 | 0.308 | 0.56
HCC-44 | 0.868 | 1.06 | 0.738 | 0.728 | 0.429 | 1 | 1.1 | 0.91 | 0.975 | 1.15 | 0.816 | 0.896 | 0.659 | 0.456 | 0.344 | 1.12 | 1.2 | 1.05 | 1.15 | 1.35
A-427 | 0.542 | 0.517 | 0.475 | 0.278 | 0.291 | 0.494 | 0.5 | 0.552 | 0.516 | 0.504 | 1.22 | 1.13 | 1.04 | 1.1 | 0.998 | 0.84 | 0.922 | 0.904 | 0.878 | 0.956
NCI-H441 | 0.307 | 0.183 | 0.227 | 0.265 | 0.261 | 0.259 | 0.232 | 0.241 | 0.242 | 0.175 | 0.688 | 0.834 | 0.68 | 0.599 | 0.44 | 0.805 | 0.933 | 0.806 | 0.752 | 0.896
ABC-1 | 1.13 | 1.07 | 1.21 | 0.507 | 0.672 | 0.548 | 0.693 | 0.573 | 0.728 | 0.482 | 1.35 | 0.691 | 0.877 | 0.877 | 0.487 | 1.29 | 1.12 | 1.36 | 0.871 | 0.772
LK-2 | 0.382 | 0.385 | 0.191 | 0.183 | 0.29 | 0.538 | – | 0.774 | 0.463 | 0.188 | 1.39 | 1.2 | 1.1 | 0.282 | 0.512 | 0.204 | 0.234 | 0.294 | 0.207 | 0.271
NCI-H2023 | 0.232 | 0.231 | 0.216 | 0.173 | 0.199 | 0.386 | 0.368 | 0.409 | 0.349 | 0.315 | 0.715 | 0.666 | 0.66 | 0.549 | 0.425 | 0.683 | 0.724 | 0.653 | 0.628 | 0.595
NCI-H647 | 0.379 | 0.426 | 0.276 | 0.288 | 0.347 | 0.395 | 0.4 | 0.381 | 0.374 | 0.345 | 1.04 | 0.746 | 0.795 | 0.657 | 0.577 | 0.4 | 0.536 | 0.586 | 0.623 | 0.48
SK-MES-1 | 0.348 | 0.375 | 0.372 | 0.358 | 0.333 | 0.305 | 0.338 | 0.303 | 0.3 | 0.451 | 0.924 | 0.735 | 0.656 | – | 0.684 | 1.12 | 1.46 | 1.18 | 1.12 | 1.24
NCI-H1793 | 0.36 | 0.474 | 0.499 | 0.457 | 0.369 | 0.331 | – | 0.349 | 0.335 | 0.339 | 0.639 | 0.671 | 0.662 | 0.652 | 0.599 | 0.907 | – | 0.672 | 0.949 | 0.832
NCI-H3122 | 0.429 | 0.428 | 0.49 | 0.401 | 0.42 | 0.192 | 0.197 | 0.199 | 0.166 | 0.165 | 0.831 | 0.885 | 0.782 | 0.729 | 0.82 | 1.06 | 1.01 | 1.08 | 0.997 | 1.05
